Legend:
rat cortical neurons = experiment: Neurite Outgrowth Assay (Procedure B); assay type: cell-based; parameters: key: A: Statistically significant mean increase as a percent of DMSO control at 10 μM or less; B: No statistically significant mean increase as a percent of DMSO control at 10 μM or less; conditions: primary rat neuronal cultures, 72h, vs DMSO control, 10 μM or less
Procedure: Neurite Outgrowth Assay (Procedure B). Pregnant Wistar rats (Janvier; France) were used for the study. They were delivered 6 days before their use. Upon arrival at Neurofit animal facility, they were housed one per cage and maintained in a room with controlled temperature (21-22° C.) and a reversed light-dark cycle (12h/12h; lights on: 17:30-05:30; lights off: 05:30-17:30) with food and water available ad libitum.
Female Wistar rats of 17 days gestation were killed by cervical dislocation and the fetuses were removed from the uterus. Their brains were placed in ice-cold medium of Leibovitz (L15, Gibco, Fisher bioblock, France). Cortices were dissected and meninges were carefully removed. The cortical neurons were dissociated by trypsinization for 30 min at 37° C. (trypsin-EDTA, Gibco) in presence of 0.1 mg/ml DNAse I (Roche, France). The reaction was stopped by addition of Dulbecco's Modified Eagle Medium (DMEM; Gibco) with 10% of fetal bovine serum (FBS; Gibco). The suspension was triturated with a 10-ml pipette and using a needle syringe 21G and centrifuged at 350×g for 10 min at room temperature. The pellet of dissociated cells was resuspended in a medium consisting of Neurobasal (Gibco) supplemented with 2% B27 supplement (Gibco), 0.5 mM L-Glutamine (Gibco), an antibiotic-antimicotic mixture. Viable cells were counted in a Neubauer cytometer using the trypan blue exclusion test (Sigma). Cells were seeded at a density of 10000 cells per well in 96-well plate (Costar) precoated with poly-L-lysine. Test compound at different concentrations were added to the cultures. Donepezil (positive control) was tested at 250 nM.
After 72h (3 days) of plating, cultures were fixed with paraformaldehyde in PBS (4%, Sigma) for 30 min at 4° C. Then, cells were successively permeabilized with 0.1% Triton X100 for 30 min, saturated with PBS containing 3% of BSA and were incubated 1 h with anti-beta III tubulin antibody (Sigma) at 1/10 000 in PBS containing 0.5% of BSA. Cells were washed three times with PBS containing 0.5% of BSA, and they were incubated 1 h with goat anti-mouse antibody coupled with AF488 (Invitrogen A11001) diluted at 1/1000 in PBS containing 0.5% of BSA. Finally, nuclei were staining with DAPI 1 mg/ml at 1/1000 in PBS containing 0.5% of BSA. After rinsing with PBS, the plate was filmed and neurite networks were examined and analyzed using High-Content Screening (Celllnsight, Thermo Scientific). The average number of neurites per neuron and the average total length of neurites per neuron were the main parameters analyzed. Analysis of data was performed using analysis of variance (ANOVA). The Fisher's Protected Least Significant Difference test was used for multiple comparisons. A p value≤0.05 was considered significant. The software used is StatView 5.0 from SAS Institut.

C57BL/6J Mice = experiment: Head twitch response (HTR) experiments; assay type: in vivo, mouse
Procedure: Head twitch response (HTR) experiments. All HTR experiments were performed by Transpharmation Ltd, London, UK. C57BL/6J Mice (9-10 weeks old) were obtained and housed following an IACUC approved protocol. The mice were habituated in the test cage for at least 30 min, injected intraperitoneally with compound (injection volume 5 ml/kg), returned to the empty test cage, and filmed for 20 minutes. Each video is scored for the number of head-twitches by a trained observer blinded to treatment condition.

5-HT2A [1] = molecular target: T1, 5-HT2A (Homo sapiens, UniProt P28223); experiment: Serotonin 5-HT2A in vitro cellular IPOne agonism assay; assay type: cell-based; parameters: host or cells: CHO-K1; conditions: CHO-K1 cells, IPOne HTRF, 60 min
T1 sequence (P28223 whole entry): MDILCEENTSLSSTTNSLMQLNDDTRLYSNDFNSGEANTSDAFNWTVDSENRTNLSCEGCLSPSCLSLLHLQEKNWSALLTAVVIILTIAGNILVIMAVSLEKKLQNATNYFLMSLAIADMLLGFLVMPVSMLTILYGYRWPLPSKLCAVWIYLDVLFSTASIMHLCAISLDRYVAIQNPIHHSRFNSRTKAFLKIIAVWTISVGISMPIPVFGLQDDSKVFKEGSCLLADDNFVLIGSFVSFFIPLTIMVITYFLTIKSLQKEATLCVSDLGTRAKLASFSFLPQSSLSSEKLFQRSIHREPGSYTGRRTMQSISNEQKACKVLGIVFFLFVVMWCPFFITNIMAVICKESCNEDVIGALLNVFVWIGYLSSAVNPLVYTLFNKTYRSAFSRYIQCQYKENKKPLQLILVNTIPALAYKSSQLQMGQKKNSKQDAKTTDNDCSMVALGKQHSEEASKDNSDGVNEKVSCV
Procedure: Serotonin 5-HT2A In Vitro Cellular IPOne Agonism Assay. The 5-HT2A IPOne HTRF assay was performed at Epics Therapeutics S.A. (Belgium, FAST-0505I) using conventional methods. Briefly, CHO-K1 cells expressing human recombinant 5-HT2A receptor grown to mid-log phase in culture media without antibiotics were detached with PBS-EDTA, centrifuged, and resuspended in medium without antibiotics buffer. 20,000 cells are distributed in a 96 well plate and incubated overnight at 37° C. with 5% CO2.
For agonist testing, the medium is removed and 20 μl of assay buffer plus 20 μl of test compound or reference agonist are added in each well. The plate is incubated for 60 min. at 37° C. with 5% CO2.
After addition of the lysis buffer containing IP1-d2 and anti-IP1 cryptate detection reagents, plates are incubated 1-hour at room temperature, and fluorescence ratios are measured according to the manufacturer specification, with the HTRF kit.

5-HT2A [2] = molecular target: T1, 5-HT2A; experiment: Serotonin 5-HT2A in vitro radioligand binding competition assay; parameters: purchased Epics Therapeutics S.A. (Belgium) FAST-0505B; host or cells: membrane extracts; conditions: radiotracer [3H]-DOI, membrane extracts
Procedure: Serotonin 5-HT2A In Vitro Radioligand Binding Competition Assay. The 5-HT2A radioligand binding competition assay was performed at Epics Therapeutics S.A. (Belgium, FAST-0505B) using conventional methods. Briefly, competition binding is performed in duplicate in the wells of a 96 well plate (Master Block, Greiner, 786201) containing binding buffer (optimized for each receptor), membrane extracts (amount of protein/well optimized for each receptor), radiotracer [^3H]-DOI (final concentration optimized for each receptor) and test compound. Nonspecific binding is determined by co-incubation with 200-fold excess of cold competitor. The samples are incubated in a final volume of 0.1 ml at a temperature and for a duration optimized for each receptor and then filtered over filter plates. Filters are washed six times with 0.5 ml of ice-cold washing buffer (optimized for each receptor) and 50 μl of Microscint 20 (Packard) are added in each well. The plates are incubated 15 min on an orbital shaker and then counted with a TopCount™ for 1 min/well.

5HT2A sensor [3] = assay type: cell-based
5HT2A sensor [4] = assay type: cell-based; remark: listed apart in the source

| Compound | Increase in Neurite Length (rat cortical neurons) | Increase in Neurite Number (rat cortical neurons) | EC50 (5-HT2A [1]) [nM] | IC50 (5-HT2A [2]) [nM] | activation of the 5HT2A sensor assay (5HT2A sensor [3]) | further results |
| --- | --- | --- | --- | --- | --- | --- |
| COc1ccc2c3c([nH]c2n1)CCN(C)CC3 [Example 1, 2-methoxy-7-methyl-5,6,7,8,9,10-hexahydropyrido[3′,2′:4,5]pyrrolo[2,3-d]azepine] | A | A | 101 to 1000 | 1000 to 10000 |  | Number of head twitches (C57BL/6J Mice; intraperitoneal, 10 mg/kg, filmed for 20 minutes): A (10 head twitches or less at 10 mg/kg) |
| COc1ccc2c(CCN(C)C)c[nH]c2c1 [Example 6-MeO-DMT] |  |  |  |  | do not activate the 5HT2A sensor assay in agonist mode | head-twitch response (HTR) (C57BL/6J Mice): does not produce a HTR; competition with 5-HT in the 5HT2A sensor assay (5HT2A sensor [4]): compete off 5-HT |
| CCN(CC)C(=O)[C@@H]1C=C2c3cccc4[nH]cc(c34)C[C@H]2N(C)C1 [LSD] |  |  |  |  | activate the 5HT2A sensor assay in agonist mode |  |
| Cc1ccc2c3c([nH]c2n1)CCN(C1COC1)CC3 [Example 9, 2-methyl-7-(oxetan-3-yl)-5,6,7,8,9,10-hexahydropyrido[3′,2′:4,5]pyrrolo[2,3-d]azepine] | B | B | > 10000 | > 10000 |  |  |
| CCN(CC)CCc1c[nH]c2cc(F)ccc12 [Example 6-F-DET] |  |  |  |  | do not activate the 5HT2A sensor assay in agonist mode | competition with 5-HT in the 5HT2A sensor assay (5HT2A sensor [4]): compete with 5HT binding to 5HT2A |
| Cc1ccc2c3c([nH]c2n1)CCNCC3 [Example 8, 2-methyl-5,6,7,8,9,10-hexahydropyrido[3′,2′:4,5]pyrrolo[2,3-d]azepine] | B | B | 101 to 1000 | 1000 to 10000 |  |  |
| COc1cc(CC(C)N)c(OC)cc1I (stereo not drawn) [DOI] |  |  |  |  | activate the 5HT2A sensor assay in agonist mode |  |
| COc1ccc2[nH]cc(CCN(C)C)c2c1 [Example 5-MeO-DMT] |  |  |  |  | activate the 5HT2A sensor assay in agonist mode | head-twitch response (HTR) (C57BL/6J Mice): produces a robust, dose-dependent head-twitch response |
| Cc1ccc2c3c([nH]c2n1)CCN(C)CC3 [Example 7, 2,7-dimethyl-5,6,7,8,9,10-hexahydropyrido[3′,2′:4,5]pyrrolo[2,3-d]azepine] | B | B | 1000 to 10000 | 1000 to 10000 |  |  |
| CN(C)CCc1c[nH]c2ccccc12 [DMT, N,N-dimethyltryptamine] |  |  |  |  | activate the 5HT2A sensor assay in agonist mode |  |
| CNC(C)Cc1ccc2c(c1)OCO2 [L-MDMA] |  |  |  |  | do not activate the 5HT2A sensor assay in agonist mode |  |
| COc1ccc2c3c([nH]c2n1)CCN(C1COC1)CC3 [Example 4, 2-methoxy-7-(oxetan-3-yl)-5,6,7,8,9,10 hexahydropyrido[3′,2′:4,5]pyrrolo[2,3-d]azepine] | B | B | > 10000 | > 10000 |  |  |
| COc1ccc2c3c(n(C)c2n1)CCNCC3 [Example 5, 2-methoxy-10-methyl-5,6,7,8,9,10-hexahydropyrido[3′,2′:4,5]pyrrolo[2,3-d]azepine] | B | B | 10 to 100 | 101 to 1000 |  |  |
| O=C(c1ccc(F)cc1)C1CCN(CCn2c(=O)[nH]c3ccccc3c2=O)CC1 [Ketanserin] |  |  |  |  | do not activate the 5HT2A sensor assay in agonist mode | competition with 5-HT in the 5HT2A sensor assay (5HT2A sensor [4]): compete with 5HT binding to 5HT2A |
| COc1ccc2c3c([nH]c2n1)CCNCC3 [Example 2, 2-methoxy-5,6,7,8,9,10-hexahydropyrido[3′,2′:4,5]pyrrolo[2,3-d]azepine] | A | A | 10 to 100 | 101 to 1000 |  |  |
| CCN(CC)C(=O)[C@@H]1C=C2c3cccc4[nH]c(Br)c(c34)C[C@H]2N(C)C1 [BOL148] |  |  |  |  | do not activate the 5HT2A sensor assay in agonist mode | competition with 5-HT in the 5HT2A sensor assay (5HT2A sensor [4]): compete with 5HT binding to 5HT2A |
| CN[C@H](C)Cc1ccc2c(c1)OCO2 [R-MDMA] |  |  |  |  | do not activate the 5HT2A sensor assay in agonist mode |  |

Source: patent publication US20230227453A1 (priority 2020, published 2023)
